Source: US12077503B2, “Substituted cyclic amides and their use as herbicides” (FMC CORPORATION, priority 2015, dated 2024)

Columns and labels:
Test in all cases: Test C preemergence
Format in all cases: in vivo
[1] = system: pigweed (Amaranthus retroflexus); conditions: for Plant response rating, Pigweed: scale 0 to 100, 0 no effect, 100 complete control
Outline: (§1)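 Herbicidal effect, applied preemergence to sown seeds or postemergence to 1- to 4-leaf plants, was scored visually 13 to 15 d after application, 0 to 100 versus controls.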

[2] = system: wheat (winter wheat, Triticum aestivum); conditions: for Plant response rating, Wheat: scale 0 to 100, 0 no effect, 100 complete control
Outline: as §1

[3] = system: Galium (catchweed bedstraw, Galium aparine); conditions: for Plant response rating, Galium: scale 0 to 100, 0 no effect, 100 complete control
Outline: as §1

[4] = system: lambsquarters (Chenopodium album); conditions: for Plant response rating, Lambsquarters: scale 0 to 100, 0 no effect, 100 complete control
Outline: as §1

[5] = system: nutsedge, yellow (yellow nutsedge, Cyperus esculentus); conditions: for Plant response rating, Nutsedge, Yellow: scale 0 to 100, 0 no effect, 100 complete control
Outline: as §1

[6] = system: velvetleaf (Abutilon theophrasti); conditions: for Plant response rating, Velvetleaf: scale 0 to 100, 0 no effect, 100 complete control
Outline: as §1

[7] = system: johnsongrass (Sorghum halepense); conditions: for Plant response rating, Johnsongrass: scale 0 to 100, 0 no effect, 100 complete control
Outline: as §1

[8] = system: blackgrass (Alopecurus myosuroides); conditions: for Plant response rating, Blackgrass: scale 0 to 100, 0 no effect, 100 complete control
Outline: as §1

[9] = system: morningglory (Ipomoea coccinea); conditions: for Plant response rating, Morningglory: scale 0 to 100, 0 no effect, 100 complete control
Outline: as §1

[10] = system: ryegrass, Italian (Italian ryegrass, Lolium multiflorum); conditions: for Plant response rating, Ryegrass, Italian: scale 0 to 100, 0 no effect, 100 complete control
Outline: as §1

[11] = system: oilseed rape (Brassica napus); conditions: for Plant response rating, Oilseed Rape: scale 0 to 100, 0 no effect, 100 complete control
Outline: as §1

[12] = system: barnyardgrass (Echinochloa crus-galli); conditions: for Plant response rating, Barnyardgrass: scale 0 to 100, 0 no effect, 100 complete control
Outline: as §1

[13] = system: foxtail, giant (giant foxtail, Setaria faberii); conditions: for Plant response rating, Foxtail, Giant: scale 0 to 100, 0 no effect, 100 complete control
Outline: as §1

corn (Zea mays) = conditions: for Plant response rating, Corn: scale 0 to 100, 0 no effect, 100 complete control
Outline: as §1

soybean (Glycine max) = conditions: for Plant response rating, Soybean: scale 0 to 100, 0 no effect, 100 complete control
Outline: as §1

[14] = system: ragweed (common ragweed, Ambrosia elatior); conditions: for Plant response rating, Ragweed: scale 0 to 100, 0 no effect, 100 complete control
Outline: as §1

[15] = system: crabgrass, large (large crabgrass, Digitaria sanguinalis); conditions: for Plant response rating, Crabgrass, Large: scale 0 to 100, 0 no effect, 100 complete control
Outline: as §1

[16] = 31 g ai/ha, 0 is no effect, 100 is complete control

O=C1NCC(c2cccc(OC(F)(F)C(F)F)c2)C1C(=O)Nc1cccc(F)c1F (racemic) [Compound 697]
65: Plant response rating, Lambsquarters ([4]; 125 g ai/ha) | Plant response rating, Velvetleaf ([6]; 125 g ai/ha) | Plant response rating, Corn (corn (Zea mays); 62 g ai/ha)
85: Plant response rating, Pigweed ([1]; 125 g ai/ha) | Plant response rating, Pigweed ([1]; 250 g ai/ha) | Plant response rating, Galium ([3]; 62 g ai/ha) | Plant response rating, Galium ([3]; 125 g ai/ha) | Plant response rating, Johnsongrass ([7]; 125 g ai/ha) | Plant response rating, Johnsongrass ([7]; 250 g ai/ha) | Plant response rating, Oilseed Rape ([11]; 250 g ai/ha) | Plant response rating (scale of 0 to 100), Barnyardgrass [12, 16] | Plant response rating (scale of 0 to 100), Foxtail, Giant [13, 16] | Plant response rating, Foxtail, Giant ([13]; 62 g ai/ha)
75: Plant response rating (scale of 0 to 100), Pigweed [1, 16] | Plant response rating, Johnsongrass ([7]; 62 g ai/ha) | Plant response rating, Blackgrass ([8]; 62 g ai/ha) | Plant response rating, Corn (corn (Zea mays); 250 g ai/ha)
70: Plant response rating (scale of 0 to 100), Johnsongrass [7, 16] | Plant response rating (scale of 0 to 100), Blackgrass [8, 16] | Plant response rating, Oilseed Rape ([11]; 62 g ai/ha)
90: Plant response rating, Galium ([3]; 250 g ai/ha) | Plant response rating, Blackgrass ([8]; 125 g ai/ha) | Plant response rating, Blackgrass ([8]; 250 g ai/ha) | Plant response rating, Barnyardgrass ([12]; 62 g ai/ha) | Plant response rating, Barnyardgrass ([12]; 125 g ai/ha) | Plant response rating, Barnyardgrass ([12]; 250 g ai/ha) | Plant response rating, Foxtail, Giant ([13]; 125 g ai/ha) | Plant response rating, Foxtail, Giant ([13]; 250 g ai/ha) | Plant response rating (scale of 0 to 100), Crabgrass, Large [15, 16] | Plant response rating, Crabgrass, Large ([15]; 125 g ai/ha)
20: Plant response rating (scale of 0 to 100), Oilseed Rape [11, 16]
10: Plant response rating, Wheat ([2]; 125 g ai/ha) | Plant response rating (scale of 0 to 100), Morningglory [9, 16] | Plant response rating, Morningglory ([9]; 62 g ai/ha) | Plant response rating, Soybean (soybean (Glycine max); 62 g ai/ha) | Plant response rating, Soybean (soybean (Glycine max); 250 g ai/ha)
95: Plant response rating, Crabgrass, Large ([15]; 62 g ai/ha) | Plant response rating, Crabgrass, Large ([15]; 250 g ai/ha)
50: Plant response rating, Ryegrass, Italian ([10]; 250 g ai/ha)
45: Plant response rating, Ryegrass, Italian ([10]; 125 g ai/ha)
80: Plant response rating, Pigweed ([1]; 62 g ai/ha) | Plant response rating, Oilseed Rape ([11]; 125 g ai/ha) | Plant response rating, Corn (corn (Zea mays); 125 g ai/ha) | Plant response rating, Ragweed ([14]; 62 g ai/ha) | Plant response rating, Ragweed ([14]; 125 g ai/ha) | Plant response rating, Ragweed ([14]; 250 g ai/ha)
55: Plant response rating, Ryegrass, Italian ([10]; 62 g ai/ha)
35: Plant response rating, Wheat ([2]; 250 g ai/ha) | Plant response rating (scale of 0 to 100), Lambsquarters [4, 16] | Plant response rating, Velvetleaf ([6]; 250 g ai/ha)
25: Plant response rating, Velvetleaf ([6]; 62 g ai/ha) | Plant response rating, Morningglory ([9]; 125 g ai/ha)
15: Plant response rating (scale of 0 to 100), Ryegrass, Italian [10, 16]
40: Plant response rating, Lambsquarters ([4]; 62 g ai/ha) | Plant response rating (scale of 0 to 100), Corn (corn (Zea mays); [16])
60: Plant response rating, Lambsquarters ([4]; 250 g ai/ha) | Plant response rating (scale of 0 to 100), Ragweed [14, 16]
30: Plant response rating, Morningglory ([9]; 250 g ai/ha)
0: Plant response rating (scale of 0 to 100), Wheat [2, 16] | Plant response rating, Wheat ([2]; 62 g ai/ha) | Plant response rating (scale of 0 to 100), Galium [3, 16] | Plant response rating (scale of 0 to 100), Nutsedge, Yellow [5, 16] | Plant response rating, Nutsedge, Yellow ([5]; 62 g ai/ha) | Plant response rating, Nutsedge, Yellow ([5]; 125 g ai/ha) | Plant response rating, Nutsedge, Yellow ([5]; 250 g ai/ha) | Plant response rating (scale of 0 to 100), Velvetleaf [6, 16] | Plant response rating (scale of 0 to 100), Soybean (soybean (Glycine max); [16]) | Plant response rating, Soybean (soybean (Glycine max); 125 g ai/ha)
